{
  "source": "patent US20060019907A1",
  "about": "“Guggulsterone: an inhibitor of nuclear factor - kappaB and IkappaBalpha kinase activation and uses thereof” (Research Development Foundation, priority 2004, published 2006)",
  "key": {"NF-κB [1]": {"test_system": "NF-κB", "assay": "TNF-induced NF-κB activation by EMSA in A549, Jurkat and KBM-5 cells", "format": "cell-based, human", "conditions": "50 μM, 4 hours, then 0.1 nM TNF 30 min", "protocol": "NF-κB Activation: To determine NF-κB activation, EMSA was carried out as previously described (Chaturvedi et al., 2000). Briefly, nuclear extracts prepared from cells (2×10^6/ml) treated with TNF were incubated with ^32P-end-labeled 45-mer double-stranded NF-κB oligonucleotide (8 μg of protein with […] of DNA) from the human immunodeficiency virus long terminal repeat, 5′-[…] GGCGTGG-3′ (SEQ ID NO:1) (boldface indicates NF-κB binding sites), for 15 min at 37° C. The DNA-protein complex formed was separated from free oligonucleotide on 6.6% native polyacrylamide gels. A double-stranded mutated oligonucleotide, 5′-[…]-3′ (SEQ ID NO:2), was used to examine the specificity of binding of NF-κB to the DNA. The specificity of binding was also examined by competition with the unlabeled oligonucleotide. For supershift assays, nuclear extracts prepared from TNF-treated cells were incubated with antibodies against either the p50 or the p65 subunit of NF-κB for 30 min at room temperature before the complex was analyzed by EMSA. The dried gels were visualized, and radioactive bands were quantitated using a PHOSPHORIMAGER™ (Molecular Dynamics, Sunnyvale, Calif.) using IMAGEQUANT™ software."}, "IκBα": {"test_system": "IκBα", "assay": "TNF-dependent IκBα degradation and phosphorylation, Western blot", "format": "cell-based, human", "conditions": "H1299; 50 μM, 4 hours, 0.1 nM TNF", "protocol": "Western Blot Analysis: To determine the effect of guggulsterone on TNF-dependent IκBα phosphorylation, IκBα degradation, p65 translocation and p65 phosphorylation, cytoplasmic extracts were prepared as previously described (Majumdar et al., 2001) from H1299 (2×10^6/ml) pretreated with 50 μM guggulsterone for 4 h and then exposed to 0.1 nM TNF for various times. Thirty micrograms of cytoplasmic protein was resolved on 10% SDS-PAGE gel, transferred to a nitrocellulose membrane, blocked with 5% non-fat milk, and probed with specific antibody against IκBα, posphorylated IκBα, p65 and phosphorylated p65. To determine the expression of cyclin D1, COX-2, MMP-9, clAP-1, xlAP, TRAF1, Bcl-2, Bfl-1, cFLIP, and survivin, whole-cell extracts were prepared from treated cells (2×10^6 cells in 2 ml medium), 30-50 μg protein was resolved on SDS-PAGE gel and probed by Western blot with specific antibodies as per manufacturer's recommended protocol. The blots were washed, exposed to HRP-conjugated secondary antibodies for 1 hour, and finally detected by ECL reagent (Amersham Pharmacia Biotech.). The bands were quantitated using a Personal Densitometer Scan v1.30 using IMAGEQUANT™ software version 3.3 (Molecular Dynamics)."}, "NF-κB [2]": {"test_system": "NF-κB", "assay": "RANKL-induced NF-κB activation by EMSA in RAW 264.7 cells", "format": "cell-based, mouse"}, "[3]": {"test_system": "caspase 8, cytochrome c, caspase 3, PARP", "assay": "Caspase activation, cytochrome c release and PARP cleavage, Western blot", "format": "cell-based, human", "conditions": "U937; 10 μM", "protocol": "(§1) Western blot analysis. Thirty to fifty micrograms of cytoplasmic, nuclear or whole cell protein was resolved on 10% SDS-PAGE gel, transferred to a nitrocellulose membrane, blocked with 5% non-fat milk, and probed with specific antibodies as per manufacturer's recommended protocol. The blots were washed, exposed to HRP-conjugated secondary antibodies for 1 h, and detected by ECL reagent (Amersham Pharmacia Biotechnology, Piscataway, N.J.). The bands were quantitated using a Personal Densitometer Scan v1.30 using Imagequant software version 3.3 (Molecular Dynamics).\nMeasurement of cytochrome c release. To determine the effect of guggulsterone on cytochrome c release, cells were treated with guggulsterone as indicated and then the cytosolic extracts were prepared as described (Yang, 1997). Briefly, the cells were washed with PBS, resuspended in the buffer containing 0.25 M sucrose, 30 mM Tris-HCl (pH 7.9), 1 mM EDTA, 1 mM PMSF, 2 mM sodium orthovanadate, 10 mM NaF, 2 μg/ml leupeptin, and 2 μg/ml aprotinin and then homogenized gently with a glass Dounce homogenizer for 20 strokes. The homogenates were centrifuged at 2000 rpm for 10 min to remove nuclei, and the supernatants were centrifuged at 14,000 rpm for 30 min to remove mitochondria and other insoluble fragments. The supernatants were again centrifuged as above to ensure complete removal of mitochondria. Protein ([…]) was subjected to 15% SDS-PAGE, and then Western blot analysis was performed using anti-cytochrome c antibody.\nPARP cleavage assay. For detection of cleavage products of PARP, whole-cell extracts were prepared by subjecting guggulsterone-treated cells to lysis in lysis buffer (20 mM Tris, pH 7.4; 250 mM NaCl; 2 mM EDTA, pH 8.0; 0.1% Triton-X 100; 0.01 μg/ml aprotinin; 0.005 μg/ml leupeptin; 0.4 mM PMSF; and 4 mM NaVO4). Lysates were spun at 14000 rpm for 10 min to remove insoluble material, resolved by 10% SDS PAGE, and probed with PARP antibodies."}, "Akt": {"test_system": "Akt", "assay": "Akt activation in U937 cells, Western blot", "format": "cell-based, human", "conditions": "10 μM", "protocol": "as §1"}, "[4]": {"test_system": "MKK4 mutants and wild type cells", "assay": "Cytotoxicity (MTT uptake) in MKK4 mutants and wild type cells", "format": "cell-based", "conditions": "72 h", "protocol": "Cytotoxicity assay. The cytotoxic effects of guggulsterone was determined by the MTT uptake method. Briefly, 5000 cells were incubated with guggulsterone in triplicate in a 96-well plate at 37° C. MTT solution was then added to each well. After a 2-h incubation at 37° C., extraction buffer (20% SDS, 50% dimethylformamide) was added, the cells were incubated overnight at 37° C., and the OD was then measured at 570 nm using a 96-well multiscanner (Dynex Technologies, MRX Revelation, Chantilly, Va.)."}, "bile salt export pump": {"test_system": "bile salt export pump", "conditions": "Cui et al., 2003; cited from earlier work"}, "[5]": {"conditions": "humans; cited from earlier work"}},
  "data": [
    {"smiles": "CC=C1C(=O)C[C@H]2[C@@H]3CCC4=CC(=O)CC[C@]4(C)[C@H]3CC[C@]12C", "note": "[guggulsterone, 4,17(20)-pregnadiene-3,16-dione]", "values": [
      {"measurement": "TNF-induced NF-κB activation in A549, Jurkat and KBM-5 cells", "setting": "NF-κB [1]", "result": "completely inhibited this activation"},
      {"measurement": "TNF-induced IκBα degradation", "setting": "IκBα", "result": "TNF had no effect on IκBα degradation"},
      {"measurement": "TNF-induced IκBα phosphorylation", "setting": "IκBα", "result": "almost completely suppressed IκBα phosphorylation"},
      {"measurement": "concentration of complete inhibition of RANKL-induced NF-κB activation", "setting": "NF-κB [2]; RAW 264.7, 10 nM RANKL", "result": 50, "unit": "µM"},
      {"measurement": "inhibition of RANKL-induced NF-κB, dose dependence", "setting": "NF-κB [2]; RAW 264.7, 10 nM RANKL", "result": "increased with dose"},
      {"measurement": "RANKL-induced NF-κB activation (EMSA)", "setting": "NF-κB [2]; RAW 264.7, 50 μM, 10 nM RANKL", "result": "completely abrogated the RANKL-induced NF-κB activation"},
      {"measurement": "RANKL-induced NF-κB activation (Example 1)", "setting": "NF-κB [2]; osteoclast precursor cells", "result": "inhibits RANKL-induced NF-κB activation"},
      {"measurement": "caspase 3 activation and PARP cleavage", "setting": "[3]", "result": "activation of caspase 3 and PARP cleavage"},
      {"measurement": "caspase 8 activation (receptor-mediated apoptosis)", "setting": "[3]", "result": "activation of caspase 8"},
      {"measurement": "mitochondrial cytochrome c release (non-receptor mediated apoptosis)", "setting": "[3]", "result": "mitochondrial cytochrome c release"},
      {"measurement": "Akt activation", "setting": "Akt", "result": "suppression of Akt-activation"},
      {"measurement": "guggulsterone induced cytotoxicity, dependence on MKK4", "setting": "[4]", "result": "MKK4 is required for guggulsterone induced cytotoxicity"},
      {"measurement": "transcription of the bile salt export pump", "setting": "bile salt export pump", "result": "enhances transcription of the bile salt export pump"},
      {"measurement": "pharmacological safety", "setting": "[5]", "result": "pharmacologically safe agent in humans"}
    ]}
  ]
}
